This passage reports Kd results from ChEMBL document CHEMBL3991601, “The target landscape of clinical kinase drugs” (Science, 2017).

Calls of active or inactive are those of the source.

As usually defined, the Kd is the concentration at which binding is half-saturated.

Assay [1] has as its target Cyclin-dependent kinase 5 (Homo sapiens, UniProt Q00535).
The target of assay [2] is T1, Serine/threonine-protein kinase STK11 (Homo sapiens, UniProt Q15831).
T1 sequence (Q15831 whole entry): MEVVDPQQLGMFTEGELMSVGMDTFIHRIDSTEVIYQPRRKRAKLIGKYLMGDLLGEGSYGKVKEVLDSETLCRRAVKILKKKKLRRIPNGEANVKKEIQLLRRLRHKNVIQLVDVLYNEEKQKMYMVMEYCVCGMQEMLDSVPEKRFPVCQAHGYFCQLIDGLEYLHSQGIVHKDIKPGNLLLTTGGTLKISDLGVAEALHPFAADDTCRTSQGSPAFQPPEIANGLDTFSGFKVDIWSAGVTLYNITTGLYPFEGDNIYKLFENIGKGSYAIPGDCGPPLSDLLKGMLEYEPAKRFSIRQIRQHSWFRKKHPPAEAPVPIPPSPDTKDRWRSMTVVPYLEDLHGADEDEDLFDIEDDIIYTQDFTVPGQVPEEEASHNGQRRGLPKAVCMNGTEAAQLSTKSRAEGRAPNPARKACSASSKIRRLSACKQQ

The target in assay [3] is T2, Serine/threonine-protein kinase Nek1 (Homo sapiens, UniProt Q96PY6).
T2 sequence (Q96PY6 whole entry): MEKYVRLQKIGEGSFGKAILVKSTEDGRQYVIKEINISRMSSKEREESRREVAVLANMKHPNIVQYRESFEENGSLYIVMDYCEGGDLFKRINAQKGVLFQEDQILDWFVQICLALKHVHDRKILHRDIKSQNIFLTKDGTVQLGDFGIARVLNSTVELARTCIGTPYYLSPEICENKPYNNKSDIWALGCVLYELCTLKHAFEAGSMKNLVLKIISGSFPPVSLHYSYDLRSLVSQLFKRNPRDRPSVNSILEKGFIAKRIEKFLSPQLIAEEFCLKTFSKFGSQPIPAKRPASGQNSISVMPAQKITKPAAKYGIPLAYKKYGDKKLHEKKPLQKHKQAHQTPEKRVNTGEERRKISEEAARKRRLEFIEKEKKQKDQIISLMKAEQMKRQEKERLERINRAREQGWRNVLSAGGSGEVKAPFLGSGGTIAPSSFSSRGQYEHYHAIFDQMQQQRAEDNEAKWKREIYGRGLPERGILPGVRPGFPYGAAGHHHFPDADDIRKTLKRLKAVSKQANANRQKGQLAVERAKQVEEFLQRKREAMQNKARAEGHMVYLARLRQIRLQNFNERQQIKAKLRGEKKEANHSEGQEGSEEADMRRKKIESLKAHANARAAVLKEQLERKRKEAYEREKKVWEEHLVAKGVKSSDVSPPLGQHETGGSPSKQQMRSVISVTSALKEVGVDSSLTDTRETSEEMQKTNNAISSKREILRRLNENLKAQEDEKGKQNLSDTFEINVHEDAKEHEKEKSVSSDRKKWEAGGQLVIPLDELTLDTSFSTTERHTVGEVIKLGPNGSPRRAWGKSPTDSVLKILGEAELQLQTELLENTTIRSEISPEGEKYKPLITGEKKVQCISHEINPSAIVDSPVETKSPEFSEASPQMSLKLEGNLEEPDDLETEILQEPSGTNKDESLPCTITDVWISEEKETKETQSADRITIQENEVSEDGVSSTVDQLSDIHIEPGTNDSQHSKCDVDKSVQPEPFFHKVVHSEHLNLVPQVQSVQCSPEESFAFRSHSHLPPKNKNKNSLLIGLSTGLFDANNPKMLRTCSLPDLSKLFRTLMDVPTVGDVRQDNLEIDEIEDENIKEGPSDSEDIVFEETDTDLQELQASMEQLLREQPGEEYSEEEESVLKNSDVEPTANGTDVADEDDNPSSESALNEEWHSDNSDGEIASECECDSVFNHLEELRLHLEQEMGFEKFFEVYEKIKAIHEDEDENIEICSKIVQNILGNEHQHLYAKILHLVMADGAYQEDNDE

For assay [4], the target named is Cyclin-dependent kinase 7 (Homo sapiens, UniProt P50613).
For assay [5], the target named is Dual specificity protein kinase CLK1 (Homo sapiens, UniProt P49759).
For assay [6], the target named is T3, ATP-dependent 6-phosphofructokinase, platelet type (Homo sapiens, UniProt Q01813).
T3 sequence (Q01813 whole entry): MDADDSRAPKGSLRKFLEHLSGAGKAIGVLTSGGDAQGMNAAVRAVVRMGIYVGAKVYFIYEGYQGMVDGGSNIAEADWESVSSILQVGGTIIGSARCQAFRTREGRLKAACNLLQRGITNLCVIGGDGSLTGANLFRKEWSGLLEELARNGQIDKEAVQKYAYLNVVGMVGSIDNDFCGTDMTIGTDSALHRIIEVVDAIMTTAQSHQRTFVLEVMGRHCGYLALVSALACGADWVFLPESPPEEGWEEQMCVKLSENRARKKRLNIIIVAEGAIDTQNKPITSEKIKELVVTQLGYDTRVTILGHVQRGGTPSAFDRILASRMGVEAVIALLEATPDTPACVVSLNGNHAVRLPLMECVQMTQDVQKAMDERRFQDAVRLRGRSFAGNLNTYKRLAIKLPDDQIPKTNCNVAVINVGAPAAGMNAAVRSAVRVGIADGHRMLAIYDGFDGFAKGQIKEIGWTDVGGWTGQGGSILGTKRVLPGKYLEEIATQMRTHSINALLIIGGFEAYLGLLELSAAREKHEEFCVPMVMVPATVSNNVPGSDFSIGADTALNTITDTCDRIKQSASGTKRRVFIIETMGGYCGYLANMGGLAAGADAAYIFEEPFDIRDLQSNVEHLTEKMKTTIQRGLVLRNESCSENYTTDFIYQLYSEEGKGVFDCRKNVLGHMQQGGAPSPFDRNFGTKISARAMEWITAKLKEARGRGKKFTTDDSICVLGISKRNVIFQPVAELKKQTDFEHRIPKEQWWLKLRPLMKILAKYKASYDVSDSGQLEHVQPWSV
Also: in the data inactive means no Kd found up to 30 µM.

Chain of Dual specificity protein kinase CLK1 (P49759 whole entry): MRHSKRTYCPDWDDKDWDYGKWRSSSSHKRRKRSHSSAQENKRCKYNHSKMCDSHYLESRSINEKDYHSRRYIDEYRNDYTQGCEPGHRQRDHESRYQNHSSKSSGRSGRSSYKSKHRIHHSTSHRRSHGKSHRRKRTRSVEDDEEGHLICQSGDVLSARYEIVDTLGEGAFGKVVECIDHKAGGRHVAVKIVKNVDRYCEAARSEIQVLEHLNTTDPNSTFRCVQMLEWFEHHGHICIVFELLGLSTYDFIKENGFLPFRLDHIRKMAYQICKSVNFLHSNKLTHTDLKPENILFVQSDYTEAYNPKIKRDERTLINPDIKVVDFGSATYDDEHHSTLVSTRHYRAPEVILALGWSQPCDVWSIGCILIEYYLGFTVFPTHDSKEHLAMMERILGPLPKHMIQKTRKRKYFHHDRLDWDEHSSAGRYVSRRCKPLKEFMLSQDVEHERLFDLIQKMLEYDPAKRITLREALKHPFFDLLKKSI
Chain of Cyclin-dependent kinase 5 (Q00535 whole entry): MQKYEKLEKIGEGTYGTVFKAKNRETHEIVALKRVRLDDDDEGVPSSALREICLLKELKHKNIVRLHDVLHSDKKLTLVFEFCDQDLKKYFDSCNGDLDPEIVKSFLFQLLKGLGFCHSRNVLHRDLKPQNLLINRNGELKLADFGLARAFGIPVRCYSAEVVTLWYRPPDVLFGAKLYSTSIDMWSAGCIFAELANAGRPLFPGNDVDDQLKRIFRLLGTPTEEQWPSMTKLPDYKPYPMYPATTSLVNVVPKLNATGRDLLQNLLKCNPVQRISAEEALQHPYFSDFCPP
Chain of Cyclin-dependent kinase 7 (P50613 whole entry): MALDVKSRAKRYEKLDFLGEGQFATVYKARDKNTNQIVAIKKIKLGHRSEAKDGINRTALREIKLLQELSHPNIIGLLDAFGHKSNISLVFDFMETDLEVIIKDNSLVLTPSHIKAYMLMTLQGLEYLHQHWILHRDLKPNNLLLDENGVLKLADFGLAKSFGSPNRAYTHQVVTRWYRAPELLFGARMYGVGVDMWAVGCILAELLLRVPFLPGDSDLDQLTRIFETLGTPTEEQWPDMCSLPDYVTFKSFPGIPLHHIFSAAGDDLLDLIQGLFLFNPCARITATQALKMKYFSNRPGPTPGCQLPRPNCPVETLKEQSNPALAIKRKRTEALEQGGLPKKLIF

For the molecule `C[C@@H](Nc1cc(F)cc(F)c1)c1cc(C(=O)N(C)C)cc2c(=O)cc(N3CCOCC3)oc12` [AZD-8186], the Kd in assay [1], in assay [2], in assay [3], in assay [4], in assay [5] and in assay [6] was > 30 µM (inactive) in each case.
For the molecule `COc1cc(OC)c(/C=C/S(=O)(=O)Cc2ccc(OC)c(NCC(=O)O)c2)c(OC)c1` [RIGOSERTIB], the Kd in assay [1], in assay [2], in assay [3], in assay [4], in assay [5] and in assay [6] was > 30 µM (inactive) throughout.
As to `CC[C@H](Nc1ncnc2[nH]cnc12)c1nc2cccc(F)c2c(=O)n1-c1ccccc1` [IDELALISIB], the Kd in assay [1], in assay [2], in assay [3], in assay [4], in assay [5] and in assay [6] was > 30 µM (inactive) throughout.
Take `C[C@@H](c1ccc2nccn2c1)n1nnc2ncc(-c3cnn(C)c3)nc21` [SAVOLITINIB]: the Kd in assay [1], in assay [3], in assay [4], in assay [5] and in assay [6] was > 30 µM (inactive) throughout.
For the molecule `CN1N=C(N)c2cn([C@@H]3O[C@H](COP(=O)(O)O)[C@@H](O)[C@H]3O)c3ncnc1c23` [TRICIRIBINE PHOSPHATE], the Kd in assay [1], in assay [2], in assay [3], in assay [4] and in assay [6] was > 30 µM (inactive) throughout.
Take `CNC(=O)CN1CCC(Oc2cc3c(Nc4cccc(Cl)c4F)ncnc3cc2OC)CC1` [SAPITINIB]: the Kd in assay [1], in assay [2], in assay [3], in assay [4], in assay [5] and in assay [6] was > 30 µM (inactive) in each case.
In the case of `O=C(c1ccc(F)c(F)c1Nc1ccc(I)cc1F)N1CC(O)([C@@H]2CCCCN2)C1` [COBIMETINIB], the Kd in assay [1], in assay [2], in assay [3], in assay [4], in assay [5] and in assay [6] was > 30 µM (inactive) in each case.
In the case of `Cc1nc(N)sc1-c1ccnc(Nc2ccc(N3CCOCC3)cc2)n1` [CYC-116], the Kd in assay [2] was > 30 µM (inactive); in assay [3] it was 1.1 µM (active); in assay [4] it was > 30 µM (inactive); in assay [5], 0.586 µM (active); in assay [6] it was > 30 µM (inactive).
For `Cc1cc(Nc2cc(N3CCN(C)CC3)nc(/C=C/c3ccccc3)n2)n[nH]1` [ENMD-2076], the Kd in assay [3] and in assay [6] was > 30 µM (inactive) throughout.
As to `Cc1ccc(NC(=O)c2ccc(CN3CC[C@H](N(C)C)C3)c(C(F)(F)F)c2)cc1Nc1nccc(-c2cncnc2)n1` [BAFETINIB], the Kd in assay [1], in assay [2], in assay [3], in assay [4] and in assay [5] was > 30 µM (inactive) throughout.
For the molecule `O=C(Nc1cccc(Cl)c1)Nc1ncc(CCNc2ncnc3ccsc23)s1` [SNS-314], the Kd in assay [2], in assay [3], in assay [5] and in assay [6] was > 30 µM (inactive) in each case.
Turning to `Nc1nc(N)c2nc(-c3cccc(O)c3)c(-c3cccc(O)c3)nc2n1` [TG100-115], the Kd in assay [6] was > 30 µM (inactive).
The same measure, in the same setting: the value for `CN1CCN(c2ccc3nc(-c4c(N)c5c(F)cccc5[nH]c4=O)[nH]c3c2)CC1` [DOVITINIB] was > 30 µM (inactive).
For the molecule `CCc1cnn2c(NCc3ccc[n+]([O-])c3)cc(N3CCCC[C@H]3CCO)nc12` [DINACICLIB], the Kd was 0.497 µM (active) in assay [2], > 30 µM (inactive) in assay [3], 0.714 µM (active) in assay [5] and > 30 µM (inactive) in assay [6].
Regarding `Cn1ncc(Cl)c1-c1cc(C(=O)N[C@H](CN)Cc2cccc(F)c2)sc1Cl` [AFURESERTIB], the Kd in assay [1], in assay [2], in assay [3], in assay [4] and in assay [6] was > 30 µM (inactive) each time.
Turning to `OCCn1cc(-c2cnc3nnn(Cc4ccc5ncccc5c4)c3n2)cn1` [PF-04217903], the Kd in assay [2], in assay [3], in assay [5] and in assay [6] was > 30 µM (inactive) each time.
For `CNC(=O)c1ccc(-c2cnc3ncc(Cc4ccc5ncccc5c4)n3n2)cc1F` [CAPMATINIB], the Kd in assay [1], in assay [2], in assay [3], in assay [4] and in assay [5] was > 30 µM (inactive) in each case.
For the molecule `N[C@@H]1CCCN(c2c(/C=C3\SC(=O)NC3=O)cccc2-c2ccccc2)C1`, the Kd in assay [1], in assay [2], in assay [3], in assay [4] and in assay [6] was > 30 µM (inactive) throughout.
Take `CCn1c(-c2nonc2N)nc2c(C#CC(C)(C)O)ncc(OC[C@H]3CCCNC3)c21` [GSK-690693]: the Kd in assay [6] is > 30 µM (inactive).
For `CCn1c(=O)c(-c2cc[nH]n2)cc2c(C)nc(N)nc21` [VOXTALISIB], the Kd in assay [1], in assay [3], in assay [4], in assay [5] and in assay [6] was > 30 µM (inactive) each time.
As to `Cc1cn(-c2cc(NC(=O)c3ccc(C)c(Nc4nccc(-c5cccnc5)n4)c3)cc(C(F)(F)F)c2)cn1` [NILOTINIB], in assay [6], the Kd was > 30 µM (inactive).
